According to patent publication US20250275975A1, “Methods of Treating Neuropathies” (Athira Pharma, Inc., priority 2023, published 2025):

Legend:
Type in all cases: in vivo, Sprague Dawley rats
STZ DNP rats [1] = test: Mechanical allodynia rescue assay (Von Frey paw withdrawal threshold), Example B1; parameters: key to Efficacy: rescue of mechanical allodynia behavior as measured by paw withdrawal threshold: NS indicates treatment did not significantly affect paw withdrawal threshold vs disease control.; + indicates p < 0.05 vs disease control.; ++ indicates p < 0.01 vs disease control.; +++ indicates p < 0.001 vs disease control; conditions: for Efficacy: rescue of mechanical allodynia behavior as measured by paw withdrawal threshold: study day 28 after 14 days of treatment, p vs disease control
From the text: Hyperglycemic rats consistently develop neuropathic pain-associated behaviors including mechanical allodynia. Allodynia refers to a type of neuropathic pain characterized by increased sensitivity to stimuli that are not normally painful. Mechanical allodynia is quantified in rats by determination of the force required to induce a withdrawal of the paw and is negatively associated with allodynia such that, the lower the force required to induce paw withdrawal, the greater the pain behavior.
(§1) A series of studies were performed to determine the ability of HGF/MET positive modulator compounds to reduce the mechanical allodynia pain behaviors in hyperglycemic rats. A single dose of STZ (55 mg/kg via intravenous (IV)) was administered to induce a Type I diabetic hyperglycemia in male Sprague Dawley rats. Hyperglycemia was confirmed 4 days after STZ administration, with blood glucose levels above 200 mg/dL considered successful model induction. 14 days after disease induction, test compound treatment was initiated and continued as daily compound administration over the remaining course of the study. Route and dose for each compound were determined by pharmacokinetic and distribution modelling. Control groups included animals with no diabetic induction (Sham control), animals with diabetes but treated only with formulation vehicle (DNP (diabetic peripheral neuropathy) control), and disease animals treated with pregabalin (30 mg/kg via PO), which is known to reduce neuropathic pain behaviors.
(§2) Changes to neuropathic pain behaviors were assessed after 14 days of compound treatment on study day 28. Mechanical allodynia was tested by placing each animal on an elevated wire grid and stimulating the plantar surface of the right rear paw with a series of filaments corresponding to increasing orders of force, reaching a maximum force of 60 grams (Aesthesio manual Von Frey filaments). The force of the filament that causes paw withdrawal was considered the paw withdrawal threshold in grams. Pain sensitivity in response to thermal hyperalgesia was determined by using hot plate method and represented as paw withdrawal latency (PWL). Rats were placed on the hot plate (52.5° C.), and the time taken to show the nocifensive behavior (either licking or jumping) of any of their paws was recorded. Statistical comparison of treatment groups to DNP control groups was performed by one-way ANOVA followed by Dunnett's multiple comparisons test.

STZ DNP rats [2] = test: Thermal hyperalgesia rescue assay (hot plate paw withdrawal latency), Example B1; parameters: key to Efficacy: rescue of thermal hyperalgesia behavior as measured by paw withdrawal latency: NS indicates treatment did not significantly affect paw withdrawal latency vs disease control.; + indicates p < 0.05 vs disease control.; ++ indicates p < 0.01 vs disease control.; +++ indicates p < 0.001 vs disease control; conditions: for Efficacy: rescue of thermal hyperalgesia behavior as measured by paw withdrawal latency: study day 28 after 14 days of treatment, hot plate 52.5° C., p vs disease control
Method: as §1, §2

[3] = system: rat model of STZ-induced DNP; test: Comparison of dosing schedules, mechanical allodynia (von Frey filaments), Example B2; parameters: key to Efficacy: rescue of mechanical allodynia behavior as measured by paw withdrawal threshold: NS indicates treatment did not significantly affect paw withdrawal threshold vs DNP control.; + indicates p < 0.05 vs DNP control.; ++ indicates p < 0.01 vs DNP control.; +++ indicates p < 0.001 vs DNP control; conditions: for Efficacy: rescue of mechanical allodynia behavior as measured by paw withdrawal threshold: p vs DNP control
Method: (§3) An additional series of studies were performed to compare the ability of Compound 1a to reduce mechanical allodynia and thermal hyperalgesia pain behaviors in hyperglycemic rats dosed once or twice daily. Briefly, a single dose of STZ (55 mg/kg via intravenous (IV)) was administered to induce a Type I diabetic hyperglycemia in male Sprague Dawley rats. Hyperglycemia was confirmed 4 days after STZ administration, with blood glucose levels above 200 mg/dL considered successful model induction. Development of a painful phenotype was confirmed 14 days after STZ administration through assessments of both mechanical allodynia and thermal hyperalgesia. Starting 15 days after disease induction, Compound 1a (8 mg/kg) was orally administered once (QD) or twice (Q12h) daily from day 15 to day 41. Control groups included animals with no diabetic induction (Sham control) and animals with diabetes but treated only with formulation vehicle (DNP [diabetic peripheral neuropathy] control).
(§4) Mechanical allodynia and thermal hyperalgesia were assessed as described in Example B1. Briefly, on study days 21, 27, 35, and 41, mechanical allodynia and thermal hyperalgesia were assessed one-hour post-dose using von Frey filaments (1.4, 4, 10, 15, 26, 48, and 60 g) and the hot plate test (52.5° C.), respectively. Pain level was also measured on day 48 following a 7-day compound-free washout to evaluate the persistence of the effects of administration of Compound 1a.

[4] = system: rat model of STZ-induced DNP; test: Comparison of dosing schedules, thermal hyperalgesia (hot plate test), Example B2; parameters: key to Efficacy: rescue of thermal hyperalgesia behavior as measured by paw withdrawal latency: NS indicates treatment did not significantly affect paw withdrawal latency vs DNP control.; + indicates p < 0.05 vs DNP control.; ++ indicates p < 0.01 vs DNP control.; +++ indicates p < 0.001 vs DNP control; conditions: for Efficacy: rescue of thermal hyperalgesia behavior as measured by paw withdrawal latency: p vs DNP control
Method: as §3, §4

[5] = 8 mg/kg PO Q12 h from day 15 to day 41, Day 21, one-hour post-dose
[6] = 8 mg/kg PO Q12 h from day 15 to day 41, Day 27, one-hour post-dose
[7] = 8 mg/kg PO Q12 h from day 15 to day 41, Day 48, after 7-day compound-free washout
[8] = 8 mg/kg PO QD from day 15 to day 41, Day 21, one-hour post-dose
[9] = 8 mg/kg PO QD from day 15 to day 41, Day 27, one-hour post-dose
[10] = 8 mg/kg PO QD from day 15 to day 41, Day 48, after 7-day compound-free washout
[11] = 8 mg/kg PO QD or Q12h, starting on day 27
[12] = day 48, after 7-day compound-free washout

With `CCC(C)CN1CC2N(C(=O)c3ccc(C(F)(F)F)cc3)CCC(=O)N2[C@@H](C)C1=O` (some centres unmarked) [Compound 1a] the “Efficacy: rescue of mechanical allodynia behavior as measured by paw withdrawal threshold” value (from here on “Efficacy: rescue … by paw withdrawal threshold”) (STZ DNP rats [1]; 0.05 mg/kg PO daily) was “NS”, the “Efficacy: rescue … by paw withdrawal threshold” value (STZ DNP rats [1]; 0.2 mg/kg PO daily) was “NS” and the “Efficacy: rescue … by paw withdrawal threshold” value (STZ DNP rats [1]; 2 mg/kg PO daily) was “+++ (+++ indicates p < 0.001 vs disease control.)”. The “Efficacy: rescue … by paw withdrawal threshold” value (STZ DNP rats [1]; 8 mg/kg PO daily) was “+++ (+++ indicates p < 0.001 vs disease control.)”, the “rescue of the mechanical allodynia behavior as measured by paw withdrawal threshold” value (STZ DNP rats [1]; STZ DNP rats) was “significant rescue” and the “Efficacy: rescue of thermal hyperalgesia behavior as measured by paw withdrawal latency” value (“Efficacy: rescue … by paw withdrawal latency” for short) (STZ DNP rats [2]; 0.05 mg/kg PO daily) was “NS”. The “Efficacy: rescue … by paw withdrawal latency” value (STZ DNP rats [2]; 0.2 mg/kg PO daily) was “NS”, the “Efficacy: rescue … by paw withdrawal latency” value (STZ DNP rats [2]; 2 mg/kg PO daily) was “+++ (+++ indicates p < 0.001 vs disease control.)” and the “Efficacy: rescue … by paw withdrawal latency” value (STZ DNP rats [2]; 8 mg/kg PO daily) was “+++ (+++ indicates p < 0.001 vs disease control.)”. The “rescue of thermal allodynia behavior as measured by paw withdrawal latency” value (STZ DNP rats [2]; STZ DNP rats) was “significant rescue”, the “Efficacy: rescue … by paw withdrawal threshold” value [3, 5] was “NS” and the “Efficacy: rescue … by paw withdrawal threshold” value [3, 6] was “++ (++ indicates p < 0.01 vs DNP control.)”. For the same compound, the “Efficacy: rescue … by paw withdrawal threshold” value [3, 7] was “+++ (+++ indicates p < 0.001 vs DNP control.)”, the “Efficacy: rescue … by paw withdrawal threshold” value [3, 8] was “NS” and the “Efficacy: rescue … by paw withdrawal threshold” value [3, 9] was “++ (++ indicates p < 0.01 vs DNP control.)”. For the same compound, the “Efficacy: rescue … by paw withdrawal threshold” value [3, 10] was “NS”, the “reversal of the increase in pain-related behaviors, mechanical allodynia” value [3, 11] was “effectively reversed” and the “persistence of pain-reducing effects, mechanical allodynia” value [3, 12] was “sustained”. For the same compound, the “Efficacy: rescue … by paw withdrawal latency” value [4, 5] was “NS”, the “Efficacy: rescue … by paw withdrawal latency” value [4, 6] was “+ (+ indicates p < 0.05 vs DNP control.)” and the “Efficacy: rescue … by paw withdrawal latency” value [4, 7] was “+++ (+++ indicates p < 0.001 vs DNP control.)”. For the same compound, the “Efficacy: rescue … by paw withdrawal latency” value [4, 8] was “NS”, the “Efficacy: rescue … by paw withdrawal latency” value [4, 9] was “+ (+ indicates p < 0.05 vs DNP control.)” and the “Efficacy: rescue … by paw withdrawal latency” value [4, 10] was “+++ (+++ indicates p < 0.001 vs DNP control.)”. For the same compound, the “reversal of the increase in pain-related behaviors, thermal allodynia” value [4, 11] was “effectively reversed” and the “persistence of pain-reducing effects, thermal allodynia” value [4, 12] was “sustained”.
